Laboratory results published in PubChem BioAssay AID248 (DTP/NCI, 2004).
Values joined by “and” are separate entries in the source; they are usually repeats but may differ in a detail not shown here. Equal entries are not always repeated. Toxic doses and inconclusive results are not listed. Rule as the data show it: active = T/C of 150% or more; inactive = T/C below 125%.

Tested on: L1210 leukemia ip in BDF1 mice, survival T/C
Experiment: NCI In Vivo Anticancer Drug Screen. Data for tumor model L1210 Leukemia (intraperitoneal) in B6D2F1 (BDF1) mice
Details: endpoint: mean survival time, higher = longer survival
Method in brief: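 Survival endpoint. Drug-treated group vs vehicle group, expressed as T divided by C. Tumor passaged by transplantation.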

[1] = dose: 100.0 mg/kg/injection, schedule: Q04DX003 (ip), vehicle: Klucel (hydroxypropylcellulose) (HPC)
[2] = dose: 200.0 mg/kg/injection, schedule: Q04DX003 (ip), vehicle: Klucel (hydroxypropylcellulose) (HPC)
[3] = dose: 400.0 mg/kg/injection, schedule: Q04DX003 (ip), vehicle: Klucel (hydroxypropylcellulose) (HPC)
[4] = dose: 100.0 mg/kg/injection, schedule: Q01DX001 (ip), vehicle: saline
[5] = dose: 200.0 mg/kg/injection, schedule: Q01DX001 (ip), vehicle: saline
[6] = dose: 400.0 mg/kg/injection, schedule: Q01DX001 (ip), vehicle: saline
[7] = dose: 100.0 mg/kg/injection, schedule: Q01DX009 (ip), vehicle: Klucel (hydroxypropylcellulose) (HPC)
[8] = dose: 200.0 mg/kg/injection, schedule: Q01DX009 (ip), vehicle: Klucel (hydroxypropylcellulose) (HPC)
[9] = dose: 100.0 mg/kg/injection, schedule: Q04DX002 (ip), vehicle: Klucel (hydroxypropylcellulose) (HPC)
[10] = dose: 100.0 mg/kg/injection, schedule: Q01DX009 (ip), vehicle: saline
[11] = dose: 100.0 mg/kg/injection, schedule: Q04DX002 (ip), vehicle: saline
[12] = dose: 100.0 mg/kg/injection, schedule: Q04DX003 (ip), vehicle: saline
[13] = dose: 200.0 mg/kg/injection, schedule: Q04DX002 (ip), vehicle: saline
[14] = dose: 200.0 mg/kg/injection, schedule: Q04DX003 (ip), vehicle: saline
[15] = dose: 400.0 mg/kg/injection, schedule: Q04DX003 (ip), vehicle: saline
[16] = dose: 100.0 mg/kg/injection, schedule: Q01DX001 (ip), vehicle: carboxymethylcellulose (CMC)
[17] = dose: 200.0 mg/kg/injection, schedule: Q01DX001 (ip), vehicle: carboxymethylcellulose (CMC)
[18] = dose: 400.0 mg/kg/injection, schedule: Q01DX001 (ip), vehicle: carboxymethylcellulose (CMC)
[19] = dose: 50.0 mg/kg/injection, schedule: Q01DX009 (ip), vehicle: saline with Tween-80
[20] = dose: 100.0 mg/kg/injection, schedule: Q01DX009 (ip), vehicle: saline with Tween-80
[21] = dose: 100.0 mg/kg/injection, schedule: Q04DX003 (ip), vehicle: saline with Tween-80
[22] = dose: 200.0 mg/kg/injection, schedule: Q01DX009 (ip), vehicle: saline with Tween-80
[23] = dose: 200.0 mg/kg/injection, schedule: Q04DX003 (ip), vehicle: saline with Tween-80
[24] = dose: 50.0 mg/kg/injection, schedule: Q01DX001 (ip), vehicle: saline
[25] = dose: 25.0 mg/kg/injection, schedule: Q04DX003 (ip), vehicle: saline
[26] = dose: 50.0 mg/kg/injection, schedule: Q04DX003 (ip), vehicle: saline
[27] = dose: 400.0 mg/kg/injection, schedule: Q01DX009 (ip), vehicle: Klucel (hydroxypropylcellulose) (HPC)

Measured: T/C

c1ccc2c(c1)C(=NOc1nc3ccccc3c3ccccc13)c1ccccc1-2
inactive: dose: 100.0 mg/kg/injection, schedule: Q01DX001 (ip), vehicle: Klucel (hydroxypropylcellulose) (HPC) 96 % of control | [1] 93 % of control | dose: 200.0 mg/kg/injection, schedule: Q01DX001 (ip), vehicle: Klucel (hydroxypropylcellulose) (HPC) 91 % of control | [2] 95 % of control | dose: 400.0 mg/kg/injection, schedule: Q01DX001 (ip), vehicle: Klucel (hydroxypropylcellulose) (HPC) 86 % of control | [3] 99 % of control

Cc1cc(NCC(O)C(O)C(O)CO)c(C(=O)NN)cc1C (centres undefined)
inactive: [4] 101 % of control | [5] 96 % of control | [6] 95 % of control

O=NN1CCCC1C(=O)O (centres undefined)
inactive: [4] 101 % of control | [5] 101 % of control and 93 % of control

COc1ccc([N+](=O)[O-])cc1NC(=O)Oc1ccc(F)cc1Cl
inactive: dose: 50.0 mg/kg/injection, schedule: Q01DX009 (ip), vehicle: Klucel (hydroxypropylcellulose) (HPC) 108 % of control | [7] 111 % of control | [8] 90 % of control

COC(=O)C1(C)CCCC2(C)C1CCC13CCC(C)(CCC21)C3O (centres undefined)
inactive: [9] 103 % of control | dose: 200.0 mg/kg/injection, schedule: Q04DX002 (ip), vehicle: Klucel (hydroxypropylcellulose) (HPC) 92 % of control | dose: 400.0 mg/kg/injection, schedule: Q04DX002 (ip), vehicle: Klucel (hydroxypropylcellulose) (HPC) 92 % of control

O=C(O)C1(O)CCCCC1
inactive: [4] 104 % of control | [10] 100 % of control | [11] 104 % of control | [12] 98 % of control | [5] 110 % of control | [13] 93 % of control | [14] 113 % of control | [6] 110 % of control | [15] 101 % of control

Nc1nccnc1C(=O)O
inactive: dose: 25.0 mg/kg/injection, schedule: Q01DX009 (ip), vehicle: water 100 % of control | dose: 50.0 mg/kg/injection, schedule: Q01DX009 (ip), vehicle: water 96 % of control | dose: 100.0 mg/kg/injection, schedule: Q01DX009 (ip), vehicle: water 100 % of control | dose: 200.0 mg/kg/injection, schedule: Q01DX009 (ip), vehicle: water 96 % of control

CC(C)(O)c1cccc2c(C(C)(C)O)cccc12
inactive: dose: 50.0 mg/kg/injection, schedule: Q01DX001 (ip), vehicle: carboxymethylcellulose (CMC) 102 % of control | [16] 102 % of control | [17] 94 % of control | [18] 105 % of control

COc1ccc(C(O)SP(=S)(OC)c2ccc(OC)cc2)cc1 (centres undefined)
inactive: [19] 100 % of control | [20] 100 % of control | [21] 92 % of control | [22] 95 % of control | [23] 88 % of control

CCN(CC)C(=O)c1ccc[n+](CC(=O)Nc2ccc(Cl)cc2)c1
inactive: dose: 12.5 mg/kg/injection, schedule: Q01DX009 (ip), vehicle: saline with Tween-80 97 % of control | dose: 12.5 mg/kg/injection, schedule: Q04DX003 (ip), vehicle: saline with Tween-80 100 % of control | dose: 25.0 mg/kg/injection, schedule: Q01DX009 (ip), vehicle: saline with Tween-80 97 % of control | dose: 25.0 mg/kg/injection, schedule: Q04DX003 (ip), vehicle: saline with Tween-80 94 % of control | [19] 97 % of control | dose: 50.0 mg/kg/injection, schedule: Q04DX003 (ip), vehicle: saline with Tween-80 103 % of control

O=NN(Cc1ccccc1)Cc1ccccc1
inactive: [24] 104 % of control | [4] 102 % of control | [5] 98 % of control | [6] 104 % of control

CC(C)(C)C1CCC2(CC1)CO2 (centres undefined)
inactive: [4] 98 % of control

CCOC(=O)C1=NN(c2ccccc2)C(=O)C1N=Nc1ccc(S(=O)(=O)Nc2cc(C)nc(C)n2)cc1 (centres undefined)
inactive: [4] 101 % of control | [5] 102 % of control | [6] 96 % of control

C=CC1CN(CCc2cc3ccccc3[nH]2)CCC1CC(=O)OCC (centres undefined)
inactive: [20] 91 % of control | [22] 96 % of control | dose: 400.0 mg/kg/injection, schedule: Q01DX009 (ip), vehicle: saline with Tween-80 97 % of control

Cc1ccc2nn(-c3ccc(O)cc3)nc2c1
inactive: [16] 98 % of control | [17] 93 % of control | [18] 96 % of control

[Cl][Co][Cl].[NH-]CCN1CC1
inactive: [12] 90 % of control

O=c1[nH]nc(CCc2ccc([N+](=O)[O-])cc2)o1
inactive: [10] 93 % of control | dose: 200.0 mg/kg/injection, schedule: Q01DX009 (ip), vehicle: saline 94 % of control | dose: 400.0 mg/kg/injection, schedule: Q01DX009 (ip), vehicle: saline 104 % of control

S=C1N(C2CCCCC2)CCN1C1CCCCC1
inactive: [9] 97 % of control

CC(C)NNC(=O)c1ccncc1
inactive: [25] 107 % of control | [26] 102 % of control | [12] 96 % of control | [14] 98 % of control | [15] 104 % of control

O=C(CCCC(=O)N/N=C/c1ccc(Cl)c(Cl)c1)N/N=C\c1ccc(Cl)c(Cl)c1
inactive: [24] 116 % of control | [4] 110 % of control | [5] 118 % of control | [6] 100 % of control

OC1CCCC2CCC[N-]C12.OC1CCCC2CCC[N-]C12.[O]=[V][OH] (centres undefined)
inactive: dose: 24.0 mg/kg/injection, schedule: Q01DX015 (ip), vehicle: carboxymethylcellulose (CMC) 105 % of control | [25] 93 % of control | dose: 36.0 mg/kg/injection, schedule: Q01DX015 (ip), vehicle: carboxymethylcellulose (CMC) 105 % of control | [24] 100 % of control | [26] 93 % of control | dose: 54.0 mg/kg/injection, schedule: Q01DX015 (ip), vehicle: carboxymethylcellulose (CMC) 102 % of control | [12] 95 % of control

COc1cc([N+](=O)[O-])c(/C=C2/c3cc(OC)c(OC)cc3CCN2C)cc1Br
inactive: [7] 100 % of control | [1] 90 % of control | [8] 96 % of control | [2] 96 % of control | [27] 92 % of control | [3] 95 % of control

c1ccc(NCc2ccco2)cc1
inactive: [21] 106 % of control | [23] 98 % of control | dose: 400.0 mg/kg/injection, schedule: Q04DX003 (ip), vehicle: saline with Tween-80 106 % of control

CC(C(=O)c1ccc(O)c(O)c1)N1CCCCC1 (centres undefined)
inactive: [16] 102 % of control | [17] 102 % of control | [18] 96 % of control

N=c1c(C(=O)O)cccn1O
inactive: dose: 87.5 mg/kg/injection, schedule: Q01DX009 (ip), vehicle: Klucel (hydroxypropylcellulose) (HPC) 105 % of control | dose: 175.0 mg/kg/injection, schedule: Q01DX009 (ip), vehicle: Klucel (hydroxypropylcellulose) (HPC) 94 % of control | dose: 350.0 mg/kg/injection, schedule: Q01DX009 (ip), vehicle: Klucel (hydroxypropylcellulose) (HPC) 95 % of control

CCCCCCCC1CCC(=O)O1 (centres undefined)
inactive: [26] 103 % of control | [4] 95 % of control | [12] 105 % of control | [5] 98 % of control | [14] 97 % of control | [6] 100 % of control

O=C(c1ccccc1)C(Br)c1ccc([N+](=O)[O-])cc1 (centres undefined)
inactive: [7] 99 % of control | [1] 105 % of control | [8] 105 % of control | [2] 108 % of control | [27] 95 % of control | [3] 103 % of control

Nc1nc(SC2CCCCC2)c2[nH]cnc2n1
inactive: dose: 60.0 mg/kg/injection, schedule: Q01DX Z (ip), vehicle: carboxymethylcellulose (CMC) 95 % of control | dose: 120.0 mg/kg/injection, schedule: Q01DX Z (ip), vehicle: carboxymethylcellulose (CMC) 104 % of control | dose: 240.0 mg/kg/injection, schedule: Q01DX Z (ip), vehicle: carboxymethylcellulose (CMC) 106 % of control | dose: 480.0 mg/kg/injection, schedule: Q01DX Z (ip), vehicle: carboxymethylcellulose (CMC) 112 % of control

COC1(OC)C2CCC1C1OC12 (centres undefined)
inactive: [11] 107 % of control | [13] 97 % of control | dose: 400.0 mg/kg/injection, schedule: Q04DX002 (ip), vehicle: saline 97 % of control
